Marks after values point to notes of the source that are not given here.
Experiments:
[1] = Animal toxicity screen / MTD by intraperitoneal injection; settings: for MTD: intraperitoneal, mice, a = maximum dose due to poor solubility, b = acutely toxic with a single animal at 0.2 mg in 200 μL (about 6.0 mg/kg); for survival in toxicity screen: 0.2 mg in 200 μL 10 mM Tris buffer pH 7.5, intraperitoneal
Description: Animal toxicity screens were performed by intraperitoneal injection of suitable compounds in C57BL/6NTac mice (each with an approximate weight of 30 g). For each animal, 0.2 mg of each compound in 200 μL 10 mM Tris buffer, pH 7.5 was used. […] These were further examined by injecting at least three mice with 200 μL of a freshly prepared aqueous solution of each compound at concentrations of 0.5 mg/mL, 2 mg/mL, 5 mg/mL, 10 mg/mL, 25 mg/mL and 50 mg/mL to determine MTD values.

[2] = system: H358, a bronchioalveolar non-small cell lung cancer cell line; experiment: MTT drug sensitivity assay; assay type: cell-based; settings: 96 hours incubation; concentration that reduced formazan formation by 50%
Description: For cytotoxicity of suitable compounds a standard MTT drug sensitivity assay was performed on cancer cells, including H358, a bronchioalveolar non-small cell lung cancer cell line. Cell density in an aliquot of cells growing in log phase was determined by counting trypan blue excluding cells in a hemocytometer and 20,000 cells were plated into each well of 96-well flat-bottomed microliter plates.

supercoiled pUC18 DNA = experiment: Modification (strand breaks) of supercoiled plasmid DNA, gel electrophoresis; assay type: biochemical; settings: 12.8 μM, anaerobic, about one hour
Description: Referring now to FIG. 6, supercoiled DNA (0.154 mM base pairs) was modified by a diastereomeric mixture of the P^4+ complex in the presence and absence of a reducing agent. Lane M was the marker lane. Lane 1 was a DNA control without a reducing agent. Lane 2 included DNA without P^4+ under aerobic conditions (e.g., in the presence of oxygen or O2) with GSH, Lane 2′ included DNA with GSH (0.513 mM) without P^4+ under anaerobic conditions (e.g., hypoxia). Lanes 3, 4 and 5 were representative of modifications under aerobic (O2) conditions and lanes 2′, 3′, 4′ and 5′ were representative of modifications under anaerobic (hypoxia or absent O2) conditions. […]
Modification reactions were carried out in 0.5 mL Eppendorf tubes with 2 μL of a supercoiled pUC18 DNA (1 μg/1 μL) in a total volume of 20 μL using a 5 mM sodium phosphate buffer (pH 7). […] DNA was then dried for about 30 minutes and resuspended in about 40 μL of a storage buffer (e.g., 40 mM Tris-Cl, 1 mM EDTA at pH 8.0) with 65 μL of deionized water and 12 μL of a loading buffer (e.g., 30% glycerol in water with 0.1% w/v bromophenol blue), Each reaction was then evaluated by standard gel electrophoresis methods (e.g., loaded on 1% agarose gel stained with ethidium bromide and electrophoresed at about 80 volts for about 90 minutes using a Tris-acetate-EDTA buffer at pH 8.0). […]

[3] = Cyclic voltammetry / reduction potentials; assay type: physicochemical; settings: cyclic voltammetry in aqueous solution, versus normal hydrogen electrode
Text: This is depicted in FIG. 4 in which compounds having a tatpp or tatpq bridging ligand are provided as examples. Preferred bridging ligands have modest potentials in order for them to be accessible in a cellular milieu. […] For TJ-7p of FIG. 2, a compound in which tatpq is the bridging ligand, the first two reductions were at 70 mV and −80 mV versus the normal hydrogen electrode. These potentials are modest and easily accessible in a cellular milieu.
The reduction potential for compounds is such that these compounds are accessible to one or more reducing agents, especially in biologic conditions. For example, the bridging ligand, tatpp, when bound by two ruthenium ions in P^4+, has a reduction potential […] of about −0.22 V versus Ag/AgCl in acetonitrile. An alternate charged form of P^4+, P^3+, has an E1/2 of about −0.71 V versus Ag/AgCl in acetonitrile. These E1/2 values of the complexes make them accessible to one or more suitable reducing agents in biologic conditions.

calf thymus Topo I = experiment: Topoisomerase I relaxation of supercoiled DNA; assay type: biochemical; settings: 0.62-3.08 μM
Description: FIGS. 19 and 20 illustrate the ability of suitable compounds to modify Topo I and Topo II. […] For FIG. 19, lane M was the marker lane containing forms I, II and III of a DNA. For all other lanes, the DNA was supercoiled pUC18 at 30.8 μM per reaction. Lane 1 was, the DNA used was pUC18 at 30.8 μM base pairs per reaction, without compound or inhibitor. Lane 2 was DNA with Tope I and no compound. Lane 3 was DNA with inhibitor, CPT. Lane 4-6 included varying concentrations of P^4+ (3.08 μM, 1.54 μM and 0.62 μM, respectively). Lane 7-9 included varying concentrations of Q^4+ (3.08 μM, 1.54 μM and 0.62 μM, respectively).
Reaction conditions for FIGS. 19 and 20 included the addition of DNA and 5 units of calf thymus Topo I in the presence or absence of either a known inhibitor (CPT), P^4+ or Q^4+. Both P^4+ and Q^4+ were examined at varying concentrations, 0.62 μM-3.08 μM. Samples were incubated at 37 degrees Centigrade in an assay buffer (e.g., 10 mM Tri-HCl at pH 7.9, 150 mM NaCl, 1 mM EDTA, 0.1% BSA, 0.1 mM spermidine, and 5% glycerol) for about 30 minutes to allow for appropriate cleavage and religation. Relaxed intermediates were then trapped by adding 5 μL of a stopping buffer (e.g., 5% SDS, 0.05% bromophenol blue and 30% glycerol). […]

Topo II = experiment: Topoisomerase II activity on supercoiled DNA; assay type: biochemical; settings: 0.46-2.31 μM
Description: As shown, M was the marker lane containing forms I, II and III of a DNA. For all other lanes, the DNA was supercoiled pUC18 at 30.8 μM base pairs per reaction. Lane 1 was DNA without compound or inhibitor. Lane 2 was DNA with Topo H and no compound. Lane 3 was DNA with inhibitor, m-AMSA. Lanes 4-6 included varying concentrations of P^4+ (2.31 μM, 1.15 μM and 0.46 μM, respectively). Lanes 7-9 included varying concentrations of Q^4+ (2.31 μM, 1.15 μM and 0.46 μM, respectively).
For conditions using Topo II, reactions were generally performed as described for Topo I, except that 23.1 μM of DNA was used per reaction along with either the inhibitor (m-AMSA) or varying concentrations of P^4+ or Q^4+ (0.46 to 2.31 μM) in a total volume of 20 μL. The assay buffer was altered for improved Topo II activity (using 10 mM Tris-HCl at pH 7.9, 50 mM NaCl, 50 mM KCl, 5 mM MgCl2, 0.1 mM EDTA, 0.15 mg mL BSA, and 1 mM ATP) as was the running buffer (using 100 mM Tris-borate, pH 8.3, 2 mM BDTA).

In the case of [Ru2(bpy)2(tpphz)(CH3CN)4]^4+, the MTD [1] is reported as <6^b mg/kg and the IC50 [2] is reported as 21 ± 2 µM.

With [Ru2(bpy)2(tpphz)(CO)2(Cl)2]^4+ the MTD [1] was <6^b mg/kg and the IC50 [2] was 8 ± 1 µM.

For [Ru2(bpy)2(tpphz)(CO)4]^4+, the MTD [1] was >6^a mg/kg.

With [Ru2(bpy)2(tpphz)(C2O4)2] the MTD [1] was >15^a mg/kg and the IC50 [2] was 100 ± 10 µM.

For Iron(II)-Bleomycin [Fe-BLM], the “DNA modification in the absence of oxygen, FIG. 7” value (supercoiled pUC18 DNA) was “unable to modify or break DNA in the absence of oxygen”.

For “[Ru2(phen)4tatpq]^4+ [[Ru2(phen)4(tatpq)]^4+]”, the “survival in toxicity screen” value [1] was “survived”, the first reduction potential [3] was 70 mV and the second reduction potential [3] was −80 mV. For the same substance, the IC50 [2] was 1 ± 0.1 µM, the “Topo I inhibition compared with camptothecin (CPT)” value (calf thymus Topo I) was “better than that of the known inhibitor, camptothecin” and the “Topo I inhibition, FIG. 19” value (calf thymus Topo I; 37 degrees Centigrade, about 30 minutes) was “inhibited Topo I and its relaxation of supercoiled DNA”. For the same substance, the “Topo II inhibition compared with amsacrine (m-AMSA)” value (Topo II) was “better than that of the known inhibitor, amsacrine” and the “Topo II inhibition, FIG. 20” value (Topo II) was “inhibited Topo II and its activity on supercoiled DNA”.

In the case of “[Ru2(phen)4tatpp]^4+ [[Ru2(phen)4(tatpp)]^4+]”, the “survival in toxicity screen” value [1] is reported as “survived”, the first reduction potential [3] is reported as 170 mV and the second reduction potential [3] is reported as −180 mV. For the same substance, the IC50 [2] was 8 ± 1 µM.

Reference: patent publication US9816075B2, “Compounds with modifying activity enhanced under hypoxic conditions” (Board of Regents, The University of Texas System, priority 2005, dated 2017)
